Test results from patent publication US20250195684A1, “DELIVERY METHODS USING PLATELETS” (Children's Hospital Medical Center, priority 2022, published 2025).

Experiments:
human iPSC line 1383D6 = assay: Effect of cytochalasin B on platelet-based mCherry mRNA delivery; format: cell-based; details: 100 nM or 350 nM
Method: The effects of cytochalasin B (CytoB), which is an inhibitor of tunneling nanotubes, on platelet-based mRNA delivery were investigated in the exemplary human iPSC line 1383D6. The cells were plated at a density of 2×10^5 cells/well in a 12 well plate and grown overnight at 37° C. with 5% CO2. Platelets were loaded with 5 μg of mCherry mRNA using Lipofectamine MessengerMax as described herein. The mRNA loaded platelets were further prepared by centrifuging at 1800×g at room temperature for 10 min, washing with EBM, and resuspending in fresh 600 μL culture media. Then, 100 μL of the mRNA loaded platelets (corresponding to 0.8 μg mRNA/well) containing 100 nM or 350 nM CytoB (or without CytoB as control) was added to the cells in a total volume of 1 mL culture media. After 24 hour incubation at 37° C. with 5% CO2, fluorescent images were obtained with a BZ-X810 fluorescence microscope (Keyence) using a TRITC filter. Subsequently, the cells were harvested using 0.25% trypsin-EDTA solution, washed twice with PBS, and centrifuged. The cell pellet was dispersed using PBS containing 3% FBS, stained with LIVE/DEAD Fixable Green Dead Cell Stain Kit (Thermo Fisher Scientific) according to manufacturer's instructions. […] Relative value in mean fluorescence intensity (MFI) was calculated with respect to the control samples without CytoB.

HUVECs = assay: Co-culture of MEG-01-GFP megakaryocyte-derived GFP-positive platelets with HUVECs (protein delivery); format: cell-based, human; details: 80 μM concentration
Method: In addition to nucleic acids such as mRNA, modified platelets were used to deliver protein. MEG-01 megakaryocytes were transduced with pLV-GFP lentivirus to induce expression of GFP (MEG-01-GFP). These megakaryocytes were cultured to produce GFP-positive platelets (FIG. 4A), which were co-cultured with HUVECs.
In a separate experiment, GFP-positive platelets were co-cultured with mCherry-expressing HUVECs.

293T cells = assay: Screening of anchoring protein HA fusion constructs, PE anti-HA flow cytometry; format: cell-based; details: live cells, gated on eGFP
From the text: FIG. 15A depicts exemplary constructs used for the determination and identification of cell surface targeting ligands, which can be, for example, expressed on platelets to increase cell type specificity. The exemplary constructs involve custom TetOn expression vectors with left/right homologue arms to AAVS1. TetOn allows for conditional expression of targeting ligands or epitopes fused to the N- and C-termini of platelet cell surface markers (e.g. CD41, CD42a, CD61). Downstream cGFP through a P2A linker allows for successful identification of cells expressing the fusion vector. FIG. 15B depicts flow cytometry plots of 293T cells transfected with the exemplary N- or C-terminal fusion vectors depicted in FIG. 15A using CD41, CD42a, and CD61. Live cells were stained with a PE anti-HA fluorescent antibody and gated upon cGFP expression during flow cytometry analysis. PE fluorescence is shown against control (untransfected) 293T cells stained with PE anti-HA (shaded).

## C=C1[C@@H](C)[C@H]2[C@H](Cc3ccccc3)NC(=O)[C@]23OC(=O)/C=C/[C@H](O)CCC[C@@H](C)C/C=C/[C@H]3[C@@H]1O [CytoB, cytochalasin B]
Human iPSC line 1383D6
  effect on platelet-based mRNA delivery: Prevents Platelet-Based mRNA Delivery
Human iPSC line 1383D6; 24 hour
  cell death (MFI of green dead cell stain): does not cause cell death

## O=C(N/N=C/c1ccc(O)c(O)c1)c1cc2ccccc2cc1O [dynasore]
HUVECs
  transformation of HUVECs by platelets treated with inhibitor: unable to transform HUVECs

## C-terminal fusion of CD61 with an HA epitope: TetOn expression construct of platelet surface marker CD61 fused C-terminally to an HA epitope, with P2A eGFP
293T cells
  exposure of HA epitope on cell surface: robust exposure of the HA epitope on the 293T cell surface
293T cells; listed as C-terminal CD61-HA fusion construct
  exposure of HA epitope on cell surface: results in anti-HA fluorescence on the cell surface
